Holding throughout (format): biochemical
The target of assay [1] is recombinant human kinase domain of JAK1 (Homo sapiens (Human), UniProt P23458). As to the kind of experiment: JAK Caliper enzyme assay at 1 mM ATP (JAK1).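 Also: microfluidic mobility-shift readout of synthetic fluorescent peptide phosphorylation, percent product converted from peak height, inhibition relative to DMSO-only wells as uninhibited baseline, room temperature incubation.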 The conditions noted are these: 1 mM ATP; read-out: IC50 (nM) JAK1.
Assay [2] addresses recombinant human kinase domain of JAK2 (Homo sapiens (Human), UniProt O60674). Nature of the assay: JAK Caliper enzyme assay at 1 mM ATP (JAK2).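 Also: microfluidic mobility-shift read-out of fluorescent synthetic peptide phosphorylation, percent product converted from peak heights, room temperature, DMSO-only wells as uninhibited baseline, inhibition curve fit.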
In assay [3] the target is recombinant human kinase domain of JAK3 (Homo sapiens (Human), UniProt P52333). As to the kind of experiment: JAK Caliper enzyme assay at 1 mM ATP (JAK3).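 Also: microfluidic mobility-shift readout of synthetic peptide phosphorylation, percent product converted from peak heights, normalized to DMSO-only wells as uninhibited baseline, room temperature incubation.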
The target of assay [4] is recombinant human kinase domain of TYK2 (Homo sapiens (Human), UniProt P29597). Nature of the assay: JAK Caliper enzyme assay at 1 mM ATP (TYK2).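 Also: microfluidic mobility-shift readout of synthetic peptide phosphorylation by TYK2, tuned to 20–30% conversion at room temperature, reaction stopped with EDTA, DMSO-only wells as uninhibited baseline.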 Conditions: 1 mM ATP; read-out: IC50 (nM) TYK2.
The mark [5] stands for this setting: 1 mM ATP, read-out: IC50 (nM) JAK3.

Like-named read-outs stand apart in the source and are kept apart here.

Chain of recombinant human kinase domain of JAK3 (P52333 822-1111): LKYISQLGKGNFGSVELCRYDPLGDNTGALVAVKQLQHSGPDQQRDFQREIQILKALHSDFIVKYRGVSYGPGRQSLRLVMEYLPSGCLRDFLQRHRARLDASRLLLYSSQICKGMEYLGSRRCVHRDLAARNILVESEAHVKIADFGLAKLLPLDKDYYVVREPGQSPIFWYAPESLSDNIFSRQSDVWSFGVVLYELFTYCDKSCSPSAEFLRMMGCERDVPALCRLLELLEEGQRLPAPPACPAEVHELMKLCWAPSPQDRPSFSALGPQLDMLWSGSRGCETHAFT
Chain of recombinant human kinase domain of TYK2 (P29597 897-1176): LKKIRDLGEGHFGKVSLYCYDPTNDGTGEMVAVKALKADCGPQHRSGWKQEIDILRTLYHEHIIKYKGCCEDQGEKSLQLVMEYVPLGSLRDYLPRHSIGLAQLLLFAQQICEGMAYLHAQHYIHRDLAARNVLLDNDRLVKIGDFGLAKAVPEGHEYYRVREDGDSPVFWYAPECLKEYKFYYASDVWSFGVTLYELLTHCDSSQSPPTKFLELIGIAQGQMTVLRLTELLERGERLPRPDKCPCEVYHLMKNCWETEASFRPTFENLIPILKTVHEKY
Chain of recombinant human kinase domain of JAK2 (O60674 849-1124): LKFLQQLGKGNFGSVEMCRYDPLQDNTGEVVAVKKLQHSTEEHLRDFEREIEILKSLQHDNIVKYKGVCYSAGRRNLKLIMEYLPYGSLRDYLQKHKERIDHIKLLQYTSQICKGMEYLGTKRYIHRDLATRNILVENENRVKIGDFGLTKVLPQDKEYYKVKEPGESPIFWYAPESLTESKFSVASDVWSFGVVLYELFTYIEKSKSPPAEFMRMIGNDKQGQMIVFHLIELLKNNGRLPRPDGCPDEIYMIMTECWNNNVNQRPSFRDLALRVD
Chain of recombinant human kinase domain of JAK1 (P23458 875-1153): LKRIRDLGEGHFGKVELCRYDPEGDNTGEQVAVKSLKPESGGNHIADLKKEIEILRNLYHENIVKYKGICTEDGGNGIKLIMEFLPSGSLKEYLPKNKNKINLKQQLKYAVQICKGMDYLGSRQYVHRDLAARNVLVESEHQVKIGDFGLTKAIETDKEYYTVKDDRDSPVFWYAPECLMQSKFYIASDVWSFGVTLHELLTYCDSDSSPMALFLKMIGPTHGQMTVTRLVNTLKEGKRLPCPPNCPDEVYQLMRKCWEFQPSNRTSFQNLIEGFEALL

What is called IC50 is the concentration that inhibits the measured activity by half. In the case of `Cn1cc(Nc2nccc(N3C[C@H]4CC[C@@H](C3)N4C[C@H]3C[C@@H]3C#N)n2)cn1` [Example 69, (1S,2S)-2-{[(1R,5S)-3-{2-[(1-methyl-1H-pyrazol-4-yl)amino]pyrimidin-4-yl}-3,8-diazabicyclo[3.2.1]oct-8-yl]methyl}cyclopropanecarbonitrile], the half-inhibitory concentration (IC50) is 1100 nM in assay [1], 5700 nM in assay [2], over 10000 nM in assay [3] and 811 nM in assay [4].

`CNC(=O)c1ncc(Nc2ncc(F)c(N3C[C@H]4[C@@H](C)[C@@]4(NC(=O)C4CC4)C3)n2)cc1C` [Example 100, 5-[(4-{(1S,5R,6R)-1-[(cyclopropylcarbonyl)amino]-6-methyl-3-azabicyclo[3.1.0]hex-3-yl}-5-fluoropyrimidin-2-yl)amino]-N,3-dimethylpyridine-2-carboxamide]: the IC50 in assay [1] was 965 nM; in assay [2] it was 4250 nM; in assay [3] (setting [5]) it was over 10000 nM; in assay [4], 97 nM.

Consider `CNC(=O)c1ncc(Nc2ncc(F)c(N3C[C@@H]4[C@H](C)[C@]4(NC(=O)C4CC4)C3)n2)cc1C` [Example 101, 5-[(4-{(1R,5S,6S)-1-[(cyclopropylcarbonyl)amino]-6-methyl-3-azabicyclo[3.1.0]hex-3-yl}-5-fluoropyrimidin-2-yl)amino]-N,3-dimethylpyridine-2-carboxamide], for which the IC50 in assay [1] was 1880 nM; in assay [2] it was 2910 nM; in assay [3] (setting [5]) it was over 10000 nM; in assay [4], 663 nM.

For the molecule `CNC(=O)c1ncc(Nc2nccc(N3C[C@H]4CC[C@@H](C3)N4CC3(C)COC3)n2)cc1C` [Example 54, N,3-dimethyl-5-[(4-{(1R,5S)-8-[(3-methyloxetan-3-yl)methyl]-3,8-diazabicyclo[3.2.1]oct-3-yl}pyrimidin-2-yl)amino]pyridine-2-carboxamide], the IC50 was 19 nM in assay [1], 4290 nM in assay [3] (setting [5]) and 8 nM in assay [4].

`Cn1cc(Nc2nccc(N3C[C@H]4CC[C@@H](C3)N4C(=O)NCCC#N)n2)cn1` [Example 47, (1R,5S)—N-(2-cyanoethyl)-3-{2-[(1-methyl-1H-pyrazol-4-yl)amino]pyrimidin-4-yl}-3,8-diazabicyclo[3.2.1]octane-8-carboxamide]: the IC50 in assay [1] is 42 nM; in assay [3] (setting [5]), over 10000 nM; in assay [4], 65 nM.

In the case of `Cn1cc(Nc2nccc(N3C[C@H]4CC[C@@H](C3)N4C(N)=O)n2)cn1` [Example 76, (1R,5S)-3-{2-[(1-methyl-1H-pyrazol-4-yl)amino]pyrimidin-4-yl}-3,8-diazabicyclo[3.2.1]octane-8-carboxamide], the concentration for half-maximal inhibition (IC50) in assay [1] is 537 nM; in assay [2] it was 1480 nM; in assay [3] (setting [5]), over 10000 nM; in assay [4], 662 nM.

Take `O=C(C1CC1)N1[C@@H]2CC[C@H]1CN(c1nc(Nc3ccnnc3)ncc1F)C2` [Example 1, cyclopropyl{(1R,5S)-3-[5-fluoro-2-(pyridazin-4-ylamino)pyrimidin-4-yl]-3,8-diazabicyclo[3.2.1]oct-8-yl}methanone]: the IC50 was 2730 nM in assay [1], over 10000 nM in assay [2], over 10000 nM in assay [3] (setting [5]) and 1100 nM in assay [4].

As to `Cn1cc(Nc2nccc(N3C[C@H]4CC[C@@H](C3)N4C(=O)Nc3ccc(C(F)(F)F)cn3)n2)cn1` [Example 48, (1R,5S)-3-{2-[(1-methyl-1H-pyrazol-4-yl)amino]pyrimidin-4-yl}-N-[5-(trifluoromethyl)pyridin-2-yl]-3,8-diazabicyclo[3.2.1]octane-8-carboxamide], the IC50 in assay [1] was 300 nM; in assay [2], 2510 nM; in assay [3] (setting [5]), over 10000 nM; in assay [4] it was 964 nM.

In the case of `C[C@@H]1[C@@H]2CN(c3nc(Nc4cnn(C5COC5)c4)ncc3F)C[C@]12NC(=O)[C@@H]1CC1(F)F` [Example 99, (1S)-2,2-difluoro-N-[(1S,5R,6R)-3-(5-fluoro-2-{[1-(oxetan-3-yl)-1H-pyrazol-4-yl]amino}pyrimidin-4-yl)-6-methyl-3-azabicyclo[3.1.0]hex-1-yl]cyclopropanecarboxamide], the half-inhibitory concentration (IC50) in assay [1] came to 65 nM; in assay [2], 391 nM; in assay [3] (setting [5]), 4940 nM; in assay [4], 26 nM.

Regarding `CNC(=O)c1cc(Nc2nccc(N3C[C@H]4CC[C@@H](C3)N4C(=O)[C@@H]3CC3(F)F)n2)cc(C)n1` [Example 40, 4-({4-[(1R,5S)-8-{[(1S)-2,2-difluorocyclopropyl]carbonyl}-3,8-diazabicyclo[3.2.1]oct-3-yl]pyrimidin-2-yl}amino)-N,6-dimethylpyridine-2-carboxamide], the IC50 in assay [1] was 369 nM; in assay [2], 189 nM; in assay [3] (setting [5]) it was over 10000 nM; in assay [4], 70 nM.

For the molecule `C[C@@H]1[C@@H]2CN(c3nc(Nc4cnc(CO)c(Cl)c4)ncc3F)C[C@]12NC(=O)C1CC1` [Example 105, N-[(1S,5R,6R)-3-(2-{[5-chloro-6-(hydroxymethyl)pyridin-3-yl]amino}-5-fluoropyrimidin-4-yl)-6-methyl-3-azabicyclo[3.1.0]hex-1-yl]cyclopropanecarboxamide], the IC50 was 1570 nM in assay [1], 6100 nM in assay [2], over 10000 nM in assay [3] (setting [5]) and 152 nM in assay [4].

Turning to `Cn1cc(Nc2nccc(N3C[C@H]4CC[C@@H](C3)N4C[C@H]3CC3(F)F)n2)cn1` [Example 63, 4-[(1R,5S)-8-{[(1R)-2,2-difluorocyclopropyl]methyl}-3,8-diazabicyclo[3.2.1]oct-3-yl]-N-(1-methyl-1H-pyrazol-4-yl)pyrimidin-2-amine], the half-inhibitory concentration (IC50) was 303 nM in assay [1], 856 nM in assay [2], over 10000 nM in assay [3] (setting [5]) and 125 nM in assay [4].

For the molecule `O=C([C@H]1CC1(F)F)N1[C@@H]2CC[C@H]1CN(c1ccnc(Nc3cn[nH]c3)n1)C2` [Example 50, ((1R,5S)-3-(2-((1H-Pyrazol-4-yl)amino)pyrimidin-4-yl)-3,8-diazabicyclo[3.2.1]octan-8-yl)((R)-2,2-difluorocyclopropyl)methanone], the values for the IC50 in assay [1], in assay [2] and in assay [3] (setting [5]) were 478 nM, 3420 nM and over 10000 nM, respectively.

On to `CCNC(=O)c1ccc(Nc2nccc(N3C[C@H]4CC[C@@H](C3)N4C(=O)CC#N)n2)cc1` [Example 13, 4-({4-[(1R,5S)-8-(cyanoacetyl)-3,8-diazabicyclo[3.2.1]oct-3-yl]pyrimidin-2-yl}amino)-N-ethylbenzamide], for which the results for the IC50 in assay [1], in assay [2] and in assay [3] (setting [5]) were 41 nM, 199 nM and over 10000 nM, respectively.

On to `C[C@@H]1[C@@H]2CN(c3nc(Nc4cnc([C@@H](C)O)c(Cl)c4)ncc3F)C[C@]12NC(=O)C1CC1` [Example 106, N-{(1S,5R,6R)-3-[2-({5-chloro-6-[(1R)-1-hydroxyethyl]pyridin-3-yl}amino)-5-fluoropyrimidin-4-yl]-6-methyl-3-azabicyclo[3.1.0]hex-1-yl}cyclopropanecarboxamide], for which the IC50 in assay [2] is 9410 nM; in assay [3] (setting [5]) it was over 10000 nM.

For the molecule `NS(=O)(=O)c1ccc(Nc2ncc(F)c(N3C[C@H]4CC[C@@H](C3)N4C(=O)C3CC3)n2)cn1` [Example 4, 5-({4-[(1R,5S)-8-(cyclopropylcarbonyl)-3,8-diazabicyclo[3.2.1]oct-3-yl]-5-fluoropyrimidin-2-yl}amino)pyridine-2-sulfonamide], the IC50 is 659 nM in assay [1], over 10000 nM in assay [3] (setting [5]) and 176 nM in assay [4].

In the case of `Cc1cc(Nc2nccc(N3C[C@H]4CC[C@@H](C3)N4C(=O)C3CC3(F)F)n2)cnc1C(N)=O` (stereo partly drawn) [Example 34, 5-[(4-{(1R,5S)-8-[(2,2-difluorocyclopropyl)carbonyl]-3,8-diazabicyclo[3.2.1]oct-3-yl}pyrimidin-2-yl)amino]-3-methylpyridine-2-carboxamide], the half-maximal inhibitory concentration (IC50) is 152 nM in assay [1], 377 nM in assay [2] and over 10000 nM in assay [3] (setting [5]).

In the case of `CCNC(=O)c1ccc(Nc2ncc(F)c(N3C[C@H]4CC[C@@H](C3)N4C(=O)C(F)(F)F)n2)cc1C` [Example 72, N-ethyl-4-({5-fluoro-4-[8-(trifluoroacetyl)-3,8-diazabicyclo[3.2.1]oct-3-yl]pyrimidin-2-yl}amino)-2-methylbenzamide], the IC50 was 81 nM in assay [1], 151 nM in assay [2] and 411 nM in assay [3] (setting [5]).

Take `NC(=O)c1ncc(Nc2nccc(N3C[C@H]4CC[C@@H](C3)N4C(=O)[C@@H]3CC3(F)F)n2)cc1F` [Example 117, 5-({4-[(1R,5S)-8-{[(1S)-2,2-Difluorocyclopropyl]carbonyl}-3,8-diazabicyclo[33.2.1]oct-3-yl]pyrimidin-2-yl}amino)-3-fluoropyridine-2-carboxamide]: the IC50 was 114 nM in assay [1], 452 nM in assay [2] and over 10000 nM in assay [3] (setting [5]).

Take `N#CC1(CN2[C@@H]3CC[C@H]2CN(c2ccnc(Nc4cn[nH]c4)n2)C3)CC1` [Example 71, 1-({(1R,5S)-3-[2-(1H-pyrazol-4-ylamino)pyrimidin-4-yl]-3,8-diazabicyclo[3.2.1]oct-8-yl}methyl)cyclopropanecarbonitrile]: the IC50 in assay [1] is 153 nM; in assay [3] (setting [5]), over 10000 nM; in assay [4], 152 nM.

Take `CCNC(=O)c1ccc(Nc2ncc(F)c(N3CC4CC(C3)N4C(=O)C(F)(F)F)n2)cc1C` [Example 116, N-ethyl-4-({5-fluoro-4-[6-(trifluoroacetyl)-3,6-diazabicyclo[3.1.1]hept-3-yl]pyrimidin-2-yl}amino)-2-methylbenzamide]: the values for the IC50 in assay [1], in assay [3] (setting [5]) and in assay [4] were 1470 nM, 9820 nM and 20 nM, respectively.

The values are drawn from patent US9663526B2, “Aminopyrimidinyl compounds” (Pfizer Inc., priority 2014, dated 2017).
